# Experimental data published in patent US20240279298A1 (BEIJING TUO JIE BIOPHARMACEUTICAL CO. LTD., priority 2021, published 2024).
# Where a SMILES comes first, the peptide text is derived from it. [ ]: non-standard residue; d: D form. Aib = CC(C)(N)C(=O)O
# Legend:
# human GIPR = biological target: T1, human GIPR (Homo sapiens, UniProt P48546); experiment: Agonist activity assay for GIPR (cAMP HTRF); assay type: cell-based; settings: for EC50: CHO-K1/GIPR cell line, cAMP
# T1 construct: expressed in transfected cells
# T1 sequence (P48546 22-466): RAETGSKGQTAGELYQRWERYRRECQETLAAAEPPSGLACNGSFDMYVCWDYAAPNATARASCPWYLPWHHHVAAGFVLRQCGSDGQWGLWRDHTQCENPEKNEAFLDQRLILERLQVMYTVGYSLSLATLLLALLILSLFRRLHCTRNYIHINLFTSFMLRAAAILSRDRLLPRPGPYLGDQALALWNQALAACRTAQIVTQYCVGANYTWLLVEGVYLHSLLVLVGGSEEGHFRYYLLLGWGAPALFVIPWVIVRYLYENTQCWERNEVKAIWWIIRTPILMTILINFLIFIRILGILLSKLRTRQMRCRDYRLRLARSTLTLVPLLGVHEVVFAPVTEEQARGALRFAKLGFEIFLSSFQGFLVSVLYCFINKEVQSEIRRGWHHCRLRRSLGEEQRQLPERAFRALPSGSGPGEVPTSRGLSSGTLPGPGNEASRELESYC
# Procedure: (§1) The activation of GCGR by related compounds will stimulate the formation of cyclic adenosine monophosphate (cAMP) in cells. Thus, the receptor activity can be monitored by cAMP production in proper cells expressing the receptor.
# (§2) Agonist activity assay for GCGR: Cryopreserved stable CHO-K1/GCGR/CRE-Luc cells were taken from a liquid nitrogen tank, thawed in a 37° C. water bath, resuspended in DMEM/F12 medium (Sigma Cat #D8437), centrifuged, and seeded into T75 culture flasks. The cells were passaged at least once for subsequent tests. Before testing, the cells were trypsinized, centrifuged, washed once, and resuspended in serum-free DMEM/F12 medium. The cell density was adjusted, and the cells were plated in a 96-well plate at a density of 2,500 cells/5 μL/well. A 1×buffer solution in Cisbio-cAMP-Gs Dynamic kit was prepared, and IBMX was added at a final concentration of 0.5 mM. 5 μL of polypeptide serially diluted by buffer was added into each well, and the plate was shaken gently for mixing and incubated for 30 minutes at 37° C. cAMP-d2 and Anti-cAMP-Eu^3+-Cryptate were 20-fold diluted with cAMP Lysis and detection buffer respectively and mixed well. 5 μL of diluted cAMP-d2 solution and 5 μL of diluted Anti-cAMP-Eu^3+-Cryptate solution were sequentially added into each well. The mixture was mixed well by moderate vibration, and incubated for 1 hour at room temperature away from light.
# Agonist activity assay for GIPR: The method differed from the method described above for the agonist activity assay for GCGR in that a stable CHO-K1/GIPR cell line was used, and the cell density was 3,000 cells/5 μL/well.
# human GLP-1R = biological target: T2, human GLP-1R (Homo sapiens, UniProt P43220); experiment: Agonist activity assay for GLP-1R (cAMP HTRF); assay type: cell-based
# T2 construct: expressed in transfected cells
# Procedure: as §1, §2
# Agonist activity assay for GLP-1R: The method differed from the method described above for the agonist activity assay for GCGR in that a stable CHO-GLP-1R cell line was used.
# [1] = biological target: T3, human glucagon receptor (GCGR) (Homo sapiens, UniProt P47871); experiment: Agonist activity assay for GCGR (cAMP HTRF); assay type: cell-based; settings: normalized by the activity of the native glucagon
# T3 construct: expressed in transfected cells
# Procedure: The activation of GCGR by related compounds will stimulate the formation of cyclic adenosine monophosphate (cAMP) in cells. Thus, the receptor activity can be monitored by cAMP production in proper cells expressing the receptor. […] The cells were passaged at least once for subsequent tests. Before testing, the cells were trypsinized, centrifuged, washed once, and resuspended in serum-free DMEM/F12 medium. The cell density was adjusted, and the cells were plated in a 96-well plate at a density of 2,500 cells/5 μL/well. […] The mixture was mixed well by moderate vibration, and incubated for 1 hour at room temperature away from light.
# [2] = Maximum solubility in phosphate buffer pH 7.4; assay type: physicochemical; settings: phosphate buffer pH 7.4, room temperature
# [3] = biological target: human glucose-dependent insulinotropic polypeptide receptor (GIPR) (human) (UniProt P48546); experiment: cell-based or functional assay
# [4] = Chemical stability in phosphate buffer (UPLC purity); assay type: physicochemical; settings: phosphate buffer pH 7.4, 1 mg/mL; for Purity Day 0: day 0 (normalization)
# Procedure: The compound purity was calculated by the percentage area of the main peak in the chromatograms relative to the total area of all integrated peaks, normalized by the purity of the sample on day 0 for the purity.
# T3 sequence (P47871 26-477): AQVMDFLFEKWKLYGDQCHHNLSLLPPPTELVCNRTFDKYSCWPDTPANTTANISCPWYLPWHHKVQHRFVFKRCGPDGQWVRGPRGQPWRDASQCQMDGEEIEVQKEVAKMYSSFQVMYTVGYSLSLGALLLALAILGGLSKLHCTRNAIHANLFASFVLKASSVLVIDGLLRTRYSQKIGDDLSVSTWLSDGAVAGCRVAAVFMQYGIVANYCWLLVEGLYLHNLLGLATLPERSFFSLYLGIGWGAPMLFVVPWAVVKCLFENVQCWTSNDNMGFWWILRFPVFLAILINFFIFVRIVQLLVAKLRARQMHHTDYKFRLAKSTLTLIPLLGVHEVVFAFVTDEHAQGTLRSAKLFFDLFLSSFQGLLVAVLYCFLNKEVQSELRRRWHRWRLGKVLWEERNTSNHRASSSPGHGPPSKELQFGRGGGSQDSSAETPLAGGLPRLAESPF
# T2 sequence (P43220 24-463): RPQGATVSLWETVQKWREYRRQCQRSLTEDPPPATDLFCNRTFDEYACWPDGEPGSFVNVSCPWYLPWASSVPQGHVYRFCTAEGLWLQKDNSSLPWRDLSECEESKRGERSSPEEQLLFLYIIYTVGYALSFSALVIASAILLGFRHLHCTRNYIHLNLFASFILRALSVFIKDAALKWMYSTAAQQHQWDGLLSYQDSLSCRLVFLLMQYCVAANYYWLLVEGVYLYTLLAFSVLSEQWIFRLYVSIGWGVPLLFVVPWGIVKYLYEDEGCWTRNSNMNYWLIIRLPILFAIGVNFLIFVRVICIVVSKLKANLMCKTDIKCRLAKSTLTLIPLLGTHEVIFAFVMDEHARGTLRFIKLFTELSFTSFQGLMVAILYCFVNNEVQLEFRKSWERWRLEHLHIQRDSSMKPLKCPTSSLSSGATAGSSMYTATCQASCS
compound,measurement,setting,value
CC[C@H](C)[C@H](NC(=O)[C@H](CC(=O)O)NC(=O)[C@H](CC(C)C)NC(=O)[C@H](Cc1ccc(O)cc1)NC(=O)[C@H](CCCCN)NC(=O)[C@H](CO)NC(=O)[C@H](Cc1ccc(O)cc1)NC(=O)[C@H](CC(=O)O)NC(=O)[C@H](CO)NC(=O)[C@@H](NC(=O)[C@H](Cc1ccccc1)NC(=O)[C@@H](NC(=O)CNC(=O)[C@H](CCC(N)=O)NC(=O)[C@H](CO)NC(=O)[C@@H](N)Cc1c[nH]cn1)[C@@H](C)O)[C@@H](C)O)C(=O)NC(C)(C)C(=O)N[C@@H](CCCNC(=N)N)C(=O)N[C@@H](C)C(=O)N[C@@H](CCC(N)=O)C(=O)N[C@@H](CCC(=O)O)C(=O)N[C@@H](Cc1ccccc1)C(=O)N[C@H](C(=O)N[C@@H](CCC(N)=O)C(=O)N[C@@H](Cc1c[nH]c2ccccc12)C(=O)N[C@@H](CC(C)C)C(=O)N[C@@H](CCC(=O)O)C(=O)N[C@@H](CO)C(=O)N[C@H](C(=O)O)[C@@H](C)O)C(C)C [Compound 42] (H-HSQGTFTSDYSKYLDI[Aib]RAQEFVQWLEST-OH),EC50,human GIPR,> 100 nM
same,GIPR % Activity relative to native GIP,human GIPR,<0.0700%
same,GLP-1R % Activity relative to native GLP-1,human GLP-1R,0.291%
same,Relative activity,[1],207%
same,solubility at 5 min,[2],> 2490 µg/mL
human GIP (1-42) (from UniProt P09681 52-93) (ligand),"GIPR % Activity relative to native GIP, cAMP HTRF",[3],100%
same,"GIPR EC50 (nM), cAMP HTRF in CHO-K1/GIPR cells",[3],0.0652 nM
CC(C)C[C@H](NC(=O)[C@H](Cc1c[nH]c2ccccc12)NC(=O)[C@H](CCC(N)=O)NC(=O)[C@@H](NC(=O)[C@H](Cc1ccccc1)NC(=O)[C@H](CCC(=O)O)NC(=O)[C@H](CCC(N)=O)NC(=O)[C@H](C)NC(=O)[C@H](CCCNC(=N)N)NC(=O)C(C)(C)NC(=O)[C@@H](NC(=O)[C@H](CC(=O)O)NC(=O)[C@H](CC(C)C)NC(=O)[C@H](Cc1ccc(O)cc1)NC(=O)[C@H](CCCCN)NC(=O)[C@H](CO)NC(=O)[C@H](Cc1ccc(O)cc1)NC(=O)[C@H](CC(=O)O)NC(=O)[C@H](CO)NC(=O)[C@@H](NC(=O)[C@H](Cc1ccccc1)NC(=O)[C@@H](NC(=O)CNC(=O)[C@H](CCC(N)=O)NC(=O)[C@H](CO)NC(=O)[C@@H](N)Cc1c[nH]cn1)[C@@H](C)O)[C@@H](C)O)[C@@H](C)O)C(C)C)C(=O)N[C@@H](CCC(=O)O)C(=O)N[C@@H](CO)C(=O)N[C@H](C(=O)O)[C@@H](C)O [Compound 39] (H-HSQGTFTSDYSKYLDT[Aib]RAQEFVQWLEST-OH),EC50,human GIPR,> 100 nM
same,GIPR % Activity relative to native GIP,human GIPR,<0.0700%
same,GLP-1R % Activity relative to native GLP-1,human GLP-1R,0.212%
same,Relative activity,[1],268%
same,solubility at 5 min,[2],> 4790 µg/mL
same,Purity Day 7,[4]; 4° C.,97.24%
same,Purity Day 14,[4]; 4° C.,97.45%
same,Purity Day 21,[4]; 4° C.,95.71%
same,Purity Day 28,[4]; 4° C.,94.88%
same,Purity Day 7,[4]; 25° C.,94.64%
same,Purity Day 14,[4]; 25° C.,93.86%
same,Purity Day 21,[4]; 25° C.,91.35%
same,Purity Day 28,[4]; 25° C.,91.85%
same,Purity Day 0,[4],100.00%
CC(C)C[C@H](NC(=O)[C@H](Cc1c[nH]c2ccccc12)NC(=O)[C@H](CCC(N)=O)NC(=O)[C@@H](NC(=O)[C@H](Cc1ccccc1)NC(=O)[C@H](CCC(=O)O)NC(=O)[C@H](CCC(N)=O)NC(=O)[C@H](C)NC(=O)[C@H](CCCNC(=N)N)NC(=O)C(C)(C)NC(=O)[C@@H](NC(=O)[C@H](CC(=O)O)NC(=O)[C@H](CC(C)C)NC(=O)[C@H](Cc1ccc(O)cc1)NC(=O)[C@H](CCCCN)NC(=O)[C@H](CO)NC(=O)[C@H](Cc1ccc(O)cc1)NC(=O)[C@H](CC(=O)O)NC(=O)[C@H](CO)NC(=O)[C@@H](NC(=O)[C@H](Cc1ccccc1)NC(=O)[C@@H](NC(=O)CNC(=O)[C@H](CCC(N)=O)NC(=O)[C@H](CO)NC(=O)[C@@H](N)Cc1c[nH]cn1)[C@@H](C)O)[C@@H](C)O)C(C)C)C(C)C)C(=O)N[C@@H](CCC(=O)O)C(=O)N[C@@H](CO)C(=O)N[C@H](C(=O)O)[C@@H](C)O [Compound 41] (H-HSQGTFTSDYSKYLDV[Aib]RAQEFVQWLEST-OH),EC50,human GIPR,> 100 nM
same,GIPR % Activity relative to native GIP,human GIPR,<0.0700%
same,GLP-1R % Activity relative to native GLP-1,human GLP-1R,0.231%
same,Relative activity,[1],333%
same,solubility at 5 min,[2],2560 µg/mL
same,Purity Day 7,[4]; 4° C.,98.77%
same,Purity Day 14,[4]; 4° C.,93.35%
same,Purity Day 21,[4]; 4° C.,89.45%
same,Purity Day 28,[4]; 4° C.,89.12%
same,Purity Day 7,[4]; 25° C.,82.25%
same,Purity Day 14,[4]; 25° C.,68.13%
same,Purity Day 21,[4]; 25° C.,49.04%
same,Purity Day 28,[4]; 25° C.,33.47%
same,Purity Day 0,[4],100.00%
